“And” between values parts separate entries of the source, which are not always exact repeats. Equal values may be shown once. “Also recorded” adds a separate entry of the source.
Experiments:
[1] = system: HCV replicon; assay: HCV replicon-based viral bioassay with supernatants of compound-treated PBMC; assay type: cell-based, hepatitis C virus
Description: A quantitative assay was developed which is based on measuring the activity of the luciferase reporter gene that was integrated into an HCV replicon. By using this system, interferons from TLR7 agonist-treated PBMCs were measured and their inhibitory activity was assessed using the luciferase reporter replicon.
Human PBMCs isolated from a healthy donor were placed in replicate cell culture wells (5×10^6 cells per well). The PBMCs are incubated in the absence of test compounds at 37° C. in a humidified atmosphere containing 5% CO2 for 24 hours to allow stabilization to the culture conditions, and then the TLR7 ligand or a drug free control is added to replicate wells containing PBMCs from the same donor. The concentrations of TLR7 ligand may be varied to suit the particular experiment, and the PBMC cultures are then incubated at 37° C. in a humidified atmosphere containing 5% CO2 for eight hours. Samples of cell culture supernatant are taken at the eight hour time point (or twenty four hour time point in case of Loxoribine and its prodrugs) from TLR7 ligand treated and control wells and are assayed for interferon-alpha production by ELISA. Supernatants from compound-treated cells and a no-drug control were diluted at 1:10, 1:100, and 1:1000 in RPMI media and applied to a 96-well plate of Huh7 hepatocyte cells containing the luciferase reporter replicon. Cells were incubated for 48 hours at 37° C. in a tissue culture incubator.
After the incubation period, the 96-well plates are washed 2× with PBS and are lysed with passive lysis buffer (Promega). Plates are shaken at room temperature for 20 minutes and standard luciferase assay reagent (Promega) is added to each well by injection and the plate is read on an Lmax luminometer (Molecular Devices).
A supernatant collected from PBMC cells non-exposed to the compound and diluted as specified in the first column was used as a control (“Blank supernatant”). The PBMC cells were isolated from a single blood donor as specified.

[2] = Pharmacokinetics of isatoribine in beagle dogs after oral dosing; conditions: both, dog, in vivo, 50 mg/kg
Description: The effect of a prodrug (val-isatoribine, 24) on the systemic exposure to isatoribine (21) after oral administration to beagle dogs was investigated. Isatoribine was prepared in sodium bicarbonate solution. Val-isatoribine and isatoribine were prepared as the following formulations, which were chosen to ensure solubility: Formulation 1: […] Formulation 2: […] Four male and four female adult beagle dogs weighing between 15 to 27 kg and approximately 1-2 years old were used at the beginning of the study. The animals were divided into 2 groups of 2 males and 2 females each. The test material was administered by gavage on Days 1 and 8, allowing a 7 day washout period between administrations. […] The plasma was frozen at −70° C. until analysis. The plasma was analyzed for isatoribine by an HPLC-MS/MS assay.

[3] = system: interferon alpha; assay: Interferon alpha plasma concentrations in mice; assay type: in vivo, mouse; conditions: mice
Text: Not only can one measure the plasma concentrations of isatoribine arising from oral administration of the said prodrug(s) but also the extensive immunological research conducted in the mouse has provided reagents suitable for measuring the levels of interferon alpha, a cytokine of interest reflecting one of the desired biologic activities of isatoribine.

[4] = one vehicle dose, one oral 50 mg/kg dose 4 hours later, time 4.03 h (second dose)
[5] = one vehicle dose, one oral 50 mg/kg dose 4 hours later, time 4.08 h (second dose)
[6] = one vehicle dose, one oral 50 mg/kg dose 4 hours later, time 4.25 h (second dose)
[7] = one vehicle dose, one oral 50 mg/kg dose 4 hours later, time 8.00 h (second dose)
[8] = two oral 50 mg/kg doses 4 hours apart, time 0.08 h (first dose)

Structure (SMILES): Nc1nc2c(sc(=O)n2[C@@H]2O[C@H](CO)[C@@H](O)[C@H]2O)c(=O)[nH]1 [Compound 21, 7-thia-8-oxoguanosine]
- HCV replicon inhibition ([1]; Table 3 No. 1, PBMC exposed 8 hours to 100 μM, donor FL72035, supernatant dilution 1:100): 100%
- HCV replicon inhibition ([1]; Table 3 No. 1, PBMC exposed 8 hours to 100 μM, donor FL72035, supernatant dilution 1:1000): 94%
- HCV replicon inhibition ([1]; Table 3 No. 2, PBMC exposed 8 hours to 100 μM, donor FL75287, supernatant dilution 1:10): 100%
- HCV replicon inhibition ([1]; Table 3 No. 2, PBMC exposed 8 hours to 100 μM, donor FL75287, supernatant dilution 1:100): 87%
- HCV replicon inhibition ([1]; Table 3 No. 2, PBMC exposed 8 hours to 100 μM, donor FL75287, supernatant dilution 1:1000): 6%
- HCV replicon inhibition ([1]; Table 3 No. 3, PBMC exposed 24 hours to 100 μM, donor FL75864, supernatant dilution 1:10): 100%
- HCV replicon inhibition ([1]; Table 3 No. 3, PBMC exposed 24 hours to 100 μM, donor FL75864, supernatant dilution 1:100): 99%
- HCV replicon inhibition ([1]; Table 3 No. 3, PBMC exposed 24 hours to 100 μM, donor FL75864, supernatant dilution 1:1000): 64%
- AUC Ratio (to isatoribine in bicarbonate solution) [2]: 1.00
- Cmax Ratio (to isatoribine in bicarbonate solution) [2]: 1.00
- Mu-IFN-α plasma concentration, individual value [3, 4]: BQL^25 pg/mL
- Mu-IFN-α plasma concentration, mean [3, 4]: 0.00 pg/mL
- Mu-IFN-α plasma concentration, individual value [3, 5]: BQL^25 pg/mL
- Mu-IFN-α plasma concentration, mean [3, 5]: 0.00 pg/mL
- Mu-IFN-α plasma concentration, individual value [3, 6]: BQL^25 pg/mL
- Mu-IFN-α plasma concentration, mean [3, 6]: 0.00 pg/mL
- Mu-IFN-α plasma concentration, mean ([3]; one vehicle dose, one oral 50 mg/kg dose 4 hours later, time 4.50 h (second dose)): 44.4 pg/mL
- Mu-IFN-α plasma concentration, individual value ([3]; one vehicle dose, one oral 50 mg/kg dose 4 hours later, time 4.50 h (second dose), listed as Isatoribine, 50 mg/kg): BQL^100 pg/mL and BQL^25 pg/mL and 133.2 pg/mL
- Mu-IFN-α plasma concentration, mean ([3]; one vehicle dose, one oral 50 mg/kg dose 4 hours later, time 5.00 h (second dose)): 37.5 pg/mL
- Mu-IFN-α plasma concentration, individual value ([3]; one vehicle dose, one oral 50 mg/kg dose 4 hours later, time 5.00 h (second dose), listed as Isatoribine, 50 mg/kg): 74.9 pg/mL and BQL^50 pg/mL
- Mu-IFN-α plasma concentration, mean ([3]; one vehicle dose, one oral 50 mg/kg dose 4 hours later, time 5.50 h (second dose)): 0.00 pg/mL
- Mu-IFN-α plasma concentration, individual value ([3]; one vehicle dose, one oral 50 mg/kg dose 4 hours later, time 5.50 h (second dose), listed as Isatoribine, 50 mg/kg): BQL^250 pg/mL; also recorded: BQL^75 pg/mL; also recorded: BQL^25 pg/mL
- Mu-IFN-α plasma concentration, mean ([3]; one vehicle dose, one oral 50 mg/kg dose 4 hours later, time 6.00 h (second dose)): 0.00 pg/mL
- Mu-IFN-α plasma concentration, individual value ([3]; one vehicle dose, one oral 50 mg/kg dose 4 hours later, time 6.00 h (second dose), listed as Isatoribine, 50 mg/kg): BQL^25 pg/mL; also recorded: BQL^75 pg/mL
- Mu-IFN-α plasma concentration, mean ([3]; one vehicle dose, one oral 50 mg/kg dose 4 hours later, time 7.00 h (second dose)): 0.00 pg/mL
- Mu-IFN-α plasma concentration, individual value ([3]; one vehicle dose, one oral 50 mg/kg dose 4 hours later, time 7.00 h (second dose), listed as Isatoribine, 50 mg/kg): BQL^50 pg/mL; also recorded: BQL^25 pg/mL
- Mu-IFN-α plasma concentration, individual value [3, 7]: BQL^25 pg/mL
- Mu-IFN-α plasma concentration, mean [3, 7]: 0.00 pg/mL
- Mu-IFN-α plasma concentration, mean ([3]; two oral 50 mg/kg doses 4 hours apart, time 0.00 h (first dose)): 0.00 pg/mL
- Mu-IFN-α plasma concentration, individual value ([3]; two oral 50 mg/kg doses 4 hours apart, time 0.00 h (first dose), listed as Isatoribine, 50 mg/kg): BQL^50 pg/mL; also recorded: BQL^125 pg/mL
- Mu-IFN-α plasma concentration, mean ([3]; two oral 50 mg/kg doses 4 hours apart, time 0.03 h (first dose)): 0.00 pg/mL
- Mu-IFN-α plasma concentration, individual value ([3]; two oral 50 mg/kg doses 4 hours apart, time 0.03 h (first dose), listed as Isatoribine, 50 mg/kg): BQL^25 pg/mL; also recorded: BQL^250 pg/mL
- Mu-IFN-α plasma concentration, individual value [3, 8]: BQL^25 pg/mL
- Mu-IFN-α plasma concentration, mean [3, 8]: 0.00 pg/mL
